This is an account of results in patent US5541171A, “Orally administrable pharmaceutical composition” (priority 1981, dated 1996).

Each structure is given as a SMILES string. Entries after “also recorded” stand apart in the source; their conditions may differ.

The subject of data set [1] is ulcerative colitis or proctitis. Nature of the data set: Randomised double-blind 16 week maintenance trial in colitis: relapse. The data set is classed as in vivo, patients. The procedure:
Seventy-two patients who were in remission with ulcerative colitis or proctitis and taking at least 4 sulphasalazine tablets each day gave their informed consent to a clinical trial. Remission was defined as the passage of three or fewer stools each day without blood or slime during the previous month. Thirty-six patients were male and 36 female. Sigmoidoscopy with rectal biopsy was performed initially and patients only entered the trial if the mucosa was normal (grade 1) or oedematous (grade 2). Biopsies were coded and reviewed by a pathologist who graded them as 1 (normal) or grades 2, 3 or 4 representing mild, moderate or severe inflammatory change.
At least 3 tablets of 5-ASA were taken daily (1200 mg) with an increased dose of 1 tablet for each gram of sulphasalazine above the minimum entry dose of 2 grams for patients taking a high dose of sulphasalazine. […]

For data set [2] the following is noted: in vivo.
Experimental: Patients completed diary cards throughout 16 weeks and were asked to note any side effects; they were seen after 4, 12 and 16 weeks. On completion of the trial a further sigmoidoscopy was performed to ensure the muscosa appeared normal. Patients were seen promptly if symptoms recurred and a sigmoidoscopy was performed at that time. A relapse was defined as a recurrence of symptoms with increased stool frequency and blood loss with sigmoidoscopic changes of contact or spontaneous mucosal haemorrhage (grade 3) or the presence of pus with bleeding and ulceration (grade 4). Blood was taken for a routine blood count and examination of the film at each clinic attendance and measurements of the serum electrolytes and liver function tests were performed initially and after 16 weeks. The study, which was randomised and double-blind in design, involved using identical placebo tablets for both sulphasalazine and 5-ASA; each patient was given two sets of tablets with either active 5-ASA and placebo sulphasalazine or placebo 5-ASA and active sulphasalazine. The patient's usual dose of sulphasalazine was continued with a minimum dose of 2 grams daily. The tablets of 5-ASA contained 400 mg (ie the amount of 5-ASA contained in 1 gram of sulphasalazine). […] Compliance was checked at each hospital visit by counting the number of tablets returned. […]
Data set [3] relates to colitis, Crohn's disease, idiopathic proctitis and chronic arthritis. The conditions noted are these: in vivo; cited from earlier work.
The conditions of data set [4]: cited from earlier work.
Data set [5] can be described thus: Serum sulphapyridine levels after ingestion of coated capsules (HPLC). Here is the method:
Six convalescent patients, 3 male and 3 female with a mean age of 57 years, from a general medical ward gave informed consent to a clinical trial. […] The thickness of the coat was checked using a micrometer to establish the range of thickness and to measure both the wide and narrow end of the capsule. Each capsule contained barium sulphate (300 mg) potato starch (20 mg) and sulphapyridine (300 mg) as a convenient marker Plain abdominal X-rays were taken at 5, 8 and 12 hours after ingestion and blood samples at 0, 3, 5, 7, 9, 12 and 24 hours after ingestion to assay sulphapyridine levels.
Sulphapyridine was analysed by high pressure liquid chromotography (HPLC) using a modification of the method described by Shaw et al (J. Pharm. Pharmacol. 1980;32;67). The analysis was performed on a LiChrosorb 10 RP 18 bonded silica reversed phase column (Merck). The mobile phase was acetonitrile--0.05M potassium dihydrogen phosphate solution (20:80) containing 0.1 per cent tetrabutyl ammonium hydroxide. Sulphapyridine was detected spectrometrically at 260 nm. Serum samples were treated with an equal volume of ethanol to precipitate plasma proteins and after centrifugation, the supernatant was injected on to the chromatograph. Sulphapyridine concentration was read directly from a calibration curve which was linear over the range 1-25 μg/ml (R=0.99).

Take `Nc1ccc(O)c(C(=O)O)c1` [Example 5-ASA, 5-amino-salicylic acid]: the “significance of difference in relapses between 5-ASA and sulphasalazine” value in data set [1] (chi squared) is “not statistically significant; also recorded: p = NS”. Further, the “side effects (headache, nausea or indigestion), comparison between groups” value in data set [2] is listed as “no difference”. Also, the usefulness in treatment entry in data set [3] is “pharmacologically active agent in the treatment of colonic and rectal ailments”. In data set [4] (in vivo), the clearance / excretion result is given as “excreted rapidly after acetylation” and the serum levels result is “very low”.
In the case of `Nc1ccc(S(=O)(=O)Nc2ccccn2)cc1` [sulphapyridine], the “drug detected in serum 3 hours after ingestion” value in data set [5] (3 hours, any patient) is reported as “No drug was detected”. In addition, the “time of maximal serum levels” value in data set [5] (human, in vivo) is listed as 12 or 24 hours after ingestion. Besides, the “patients with drug detected in serum 5 hours after ingestion” value in data set [5] (in vivo) amounted to 2 patients. For the same molecule, the clearance / excretion entry in data set [4] (in vivo) was “slowly cleared from the serum”. Moreover, in data set [4], the “absorption after oral administration” value is given as “almost entirely absorbed from the small intestine before reaching the colon”.
In data set [1] (16 weeks, 34 patients on 5-ASA (coated tablets, at least 1200 mg daily), 33 on sulphasalazine (minimum 2 grams daily)), `O=C(O)c1cc(/N=N/c2ccc(S(=O)(=O)Nc3ccccn3)cc2)ccc1O` [sulphasalazine, Salicylazosulphapyridine] had a Relapses of 6 patients. Further, the “side effects (headache, nausea or indigestion), comparison between groups” value in data set [2] is “no difference”. In addition, the usefulness in treatment result in data set [3] is “useful in the treatment of colitis, Crohn's disease, idiopathic proctitis and chronic arthritis”. The “absorption after oral administration” value in data set [4] is on record as “only absorbed to a limited extent before reaching the colon”.
